Assay results: patent US20120065228A1, “COMPOSITIONS AND METHODS FOR TREATING, CONTROLLING, REDUCING, OR AMELIORATING OCULAR INFLAMMATORY WITH LOWER RISK OF INCREASED INTRAOCULAR PRESSURE” (priority 2007, published 2012)
“And” between values parts separate entries of the source, which are not always exact repeats. Equal entries are not always repeated.

How the values were obtained:
Format in all cases: in vivo
rabbit eye [1] = assay: Pupillary diameter measurement, rabbit paracentesis model; settings: individual eyes; for Pupillary diameter T2: −5 min: 5 min before the first paracentesis; for Pupillary diameter T3: +115 min: 5 min before the second paracentesis; for Pupillary diameter Δ(T3 − T1): +115 min minus −180 min; for Pupillary diameter T1: −180 min: basal
Protocol: (§1) Each rabbit was placed in a restraint device and tagged with the alphanumeric code. The formulations were instilled (50 μl) into the conjunctival sac of both eyes 180, 120, 90 and 30 min before the first paracentesis; then 15, 30, 90 min after the first paracentesis. To perform the first paracentesis the animals were anaesthetized by intravenous injection of 5 mg/kg Zoletil® (Virbac; 2.5 mg/kg tiletamine HCl and 2.5 mg/kg zolazepam HCl) and one drop of local anesthetic (Novesina®, Novartis) was administered to the eye. Anterior chamber paracentesis was performed with a 26 G needle attached to a tuberculin syringe; the needle was introduced into the anterior chamber through the cornea, taking care not to damage the tissues. Two hours after the ® first paracentesis, the animals were sacrificed with 0.4 ml Tanax® (Intervet International B.V.) and the second paracentesis was performed. About 100 μl of aqueous humor were removed at the second paracentesis. Aqueous humor was immediately split in four aliquots and stored at −80° C. until analysis. Then both eyes were enucleated and the iris-ciliary body was carefully excised, placed in polypropylene tubes, and stored at −80° C. until analysis.
The pupillary diameter of both eyes was measured with a Castroviejo caliper 180 min and 5 min before the first paracentesis and 5 min before the second paracentesis.
(§2) Pupillary diameter, PGE2, protein, PMN, and MPO were expressed as mean±SEM. Statistical analysis was performed using one way ANOVA followed by a Newman-Keuls post hoc test. Clinical score was expressed as % of eyes and the statistical analysis was performed using Kruskal-Wallis followed by a Dunn post hoc test. P<0.05 was considered statistically significant in both cases. Prism 4 software (GraphPad Software, Inc.) was used for the analysis and graphs.

rabbit eye [2] = assay: Clinical evaluation by slit lamp (clinical score), rabbit paracentesis model; parameters: key to Clinical Score −180 min / Clinical Score −5 min / Clinical Score +115 min: 0: normal; 1: discrete dilatation of iris and conjunctival vessels; 2: moderate dilatation of iris and conjunctival vessels; 3: intense iridal hyperemia with flare in the anterior chamber; 4: intense iridal hyperemia with flare in the anterior chamber and presence of fibrinous exudates; settings: for Clinical Score −5 min: 5 min before the first paracentesis; for Clinical Score −5 min / Clinical Score +115 min / Clinical Score −180 min: individual eyes; for Clinical Score +115 min: 5 min before the second paracentesis; for Clinical score as percentage of eyes, Score (%) 2 / Clinical score as percentage of eyes, Score (%) 3 / Clinical score as percentage of eyes, Score (%) 0 / Clinical score as percentage of eyes, Score (%) 1: 8 eyes; for Clinical Score −180 min: basal
[3] = test system: PGE2 in the aqueous humor; assay: Prostaglandin E2 (PGE2) measurement in aqueous humor, rabbit paracentesis model; settings: for PGE2 in aqueous humor, statistical significance versus CTR: p<0.05; for PGE2 in aqueous humor, Mean / PGE2 in aqueous humor: second paracentesis; for PGE2 in aqueous humor: individual eyes
Protocol: as §1
For the quantitative determination of PGE2 in the aqueous humor we used the PGE2 Immunoassay kit (R&D Systems; Cat. No. KGE004; Lot. No. 240010). Eleven microliters or 16 μl of aqueous humor were diluted to 110 μl or 160 μl with the calibrator diluent solution provided with the kit. One hundred microliters of samples and of standards were load into a 96-well plate and recorded in a plate layout. Samples were treated following the assay procedure described in the kit. A microplate reader (GDV, Italy; model DV 990 B/V6) set at 450 nm (wavelength correction at 540 nm) was used for making the calibration and analyzing the samples.
as §2

[4] = test system: protein concentration in the aqueous humor; assay: Protein measurement in aqueous humor, rabbit paracentesis model; settings: for Protein in aqueous humor, Mean / Protein in aqueous humor: second paracentesis; for Protein in aqueous humor: individual eyes
Protocol: as §1
For protein concentration determination in the aqueous humor we used the Protein Quantification Kit (Fluka; Cat. No. 77371; Lot. No. 1303129). Five microliters of aqueous humor were diluted to 100 μl with water. Twenty microliters of samples and of standards were load into a 96-well plate and recorded in a plate layout. Samples were treated following the assay procedure described in the kit. A microplate reader (GDV, Italy; model DV 990 B/V6) set at 670 nm was used for making the calibration and analyzing the samples.
as §2

[5] = 0.1% topical formulation, listed as BOL
[6] = 0.5% topical formulation, listed as BOL
[7] = 1% topical formulation, listed as BOL
[8] = 0.1% topical formulation, +115 min
[9] = 0.1% topical formulation, −5 min
[10] = 0.1% topical formulation, −180 min (basal)
[11] = 0.5% topical formulation, +115 min
[12] = 0.1% topical formulation, listed as Dex

## Cc1ccc2c(NCC(O)(CC(C)(C)c3cc(F)cc4c3OCC4)C(F)(F)F)cccc2n1 (stereo not shown) [BOL-303242-X]
Rabbit eye [1]; [5]
  Pupillary diameter T2: −5 min: 6.5 mm (3×) and 7.0 mm (4×) and 7.5 mm
  Pupillary diameter T3: +115 min: 5.0 mm (2×) and 6.0 mm (3×) and 6.5 mm and 5.5 mm (2×)
  Pupillary diameter Δ(T3 − T1): −1.5 mm (4×) and −0.5 mm (2×) and −1.0 mm (2×)
  Pupillary diameter T1: −180 min: 6.5 mm (4×) and 7.0 mm (3×) and 7.5 mm
Rabbit eye [1]; [6]
  Pupillary diameter T2: −5 min: 8.0 mm (3×) and 7.0 mm (4×) and 7.5 mm
  Pupillary diameter T3: +115 min: 6.5 mm (4×) and 6.0 mm (2×) and 7.0 mm (2×)
  Pupillary diameter Δ(T3 − T1): −1.5 mm (2×) and −0.5 mm (2×) and −1.0 mm (4×)
  Pupillary diameter T1: −180 min: 8.0 mm (3×) and 7.0 mm (3×) and 7.5 mm (2×)
Rabbit eye [1]; [7]
  Pupillary diameter T2: −5 min: 6.0 mm (2×) and 6.5 mm (4×) and 7.0 mm (2×)
  Pupillary diameter T3: +115 min: 5.5 mm (2×) and 5.0 mm (4×) and 6.0 mm (2×)
  Pupillary diameter Δ(T3 − T1): −0.5 mm (3×) and −1.5 mm (2×) and −1.0 mm (3×)
  Pupillary diameter T1: −180 min: 6.0 mm (3×) and 6.5 mm (5×)
Rabbit eye [2]; 0.1% topical formulation
  Clinical Score −5 min: 0
  Clinical Score −180 min: 0
Rabbit eye [2]; [5]
  Clinical Score +115 min: 2 (6×) and 3 (2×)
Rabbit eye [2]; [8]
  Clinical score as percentage of eyes, Score (%) 2: 75%
  Clinical score as percentage of eyes, Score (%) 3: 25%
Rabbit eye [2]; [9]
  Clinical score as percentage of eyes, Score (%) 0: 100%
Rabbit eye [2]; [10]
  Clinical score as percentage of eyes, Score (%) 0: 100%
Rabbit eye [2]; 0.5% topical formulation
  Clinical Score −5 min: 0
  Clinical Score −180 min: 0
Rabbit eye [2]; [6]
  Clinical Score +115 min: 2 (5×) and 1 (3×)
Rabbit eye [2]; [11]
  Clinical score as percentage of eyes, Score (%) 1: 37.5%
  Clinical score as percentage of eyes, Score (%) 2: 62.5%
Rabbit eye [2]; 0.5% topical formulation, −5 min
  Clinical score as percentage of eyes, Score (%) 0: 100%
Rabbit eye [2]; 0.5% topical formulation, −180 min (basal)
  Clinical score as percentage of eyes, Score (%) 0: 100%
Rabbit eye [2]; 1% topical formulation
  Clinical Score −5 min: 0
  Clinical Score +115 min: 2
  Clinical Score −180 min: 0
Rabbit eye [2]; 1% topical formulation, +115 min
  Clinical score as percentage of eyes, Score (%) 2: 100%
Rabbit eye [2]; 1% topical formulation, −5 min
  Clinical score as percentage of eyes, Score (%) 0: 100%
Rabbit eye [2]; 1% topical formulation, −180 min (basal)
  Clinical score as percentage of eyes, Score (%) 0: 100%
[3]; 0.1% topical formulation
  PGE2 in aqueous humor, statistical significance versus CTR: statistically significant versus CTR
  PGE2 in aqueous humor, Mean: 1.452 ng/mL
[3]; [5]
  PGE2 in aqueous humor: 1.62 ng/mL and 1.88 ng/mL and 2.15 ng/mL and 0.70 ng/mL and 1.34 ng/mL and 1.03 ng/mL
[3]; 0.5% topical formulation
  PGE2 in aqueous humor, statistical significance versus CTR: statistically significant versus CTR
  PGE2 in aqueous humor, Mean: 1.384 ng/mL
[3]; [6]
  PGE2 in aqueous humor: 2.31 ng/mL and 2.59 ng/mL and 0.53 ng/mL and 0.75 ng/mL and 0.80 ng/mL and 1.62 ng/mL and 1.09 ng/mL
[3]; 1% topical formulation
  PGE2 in aqueous humor, Mean: 2.168 ng/mL
[3]; [7]
  PGE2 in aqueous humor: 0.50 ng/mL and 1.87 ng/mL and 1.71 ng/mL and 4.04 ng/mL and 1.11 ng/mL and 3.78 ng/mL
[4]; 0.1% topical formulation
  Protein in aqueous humor, Mean: 33.667 mg/mL
[4]; [5]
  Protein in aqueous humor: 34.87 mg/mL and 34.41 mg/mL and 31.14 mg/mL and 22.82 mg/mL and 29.46 mg/mL and 31.69 mg/mL and 35.70 mg/mL and 49.25 mg/mL
[4]; 0.5% topical formulation, p<0.05
  Protein in aqueous humor, statistical significance vs CTR: statistical significance
[4]; 0.5% topical formulation
  Protein in aqueous humor, Mean: 28.844 mg/mL
[4]; [6]
  Protein in aqueous humor: 33.98 mg/mL and 33.65 mg/mL and 19.99 mg/mL and 27.11 mg/mL and 19.72 mg/mL and 36.35 mg/mL and 27.71 mg/mL and 32.24 mg/mL
[4]; 1% topical formulation, p<0.001
  Protein in aqueous humor, statistical significance vs CTR: statistical significance
[4]; 1% topical formulation
  Protein in aqueous humor, Mean: 21.435 mg/mL
[4]; [7]
  Protein in aqueous humor: 20.99 mg/mL and 21.48 mg/mL and 15.11 mg/mL and 20.28 mg/mL and 20.94 mg/mL and 21.89 mg/mL and 20.03 mg/mL and 30.76 mg/mL

## C[C@@H]1C[C@H]2[C@@H]3CCC4=CC(=O)C=C[C@]4(C)[C@@]3(F)[C@@H](O)C[C@]2(C)[C@@]1(O)C(=O)CO [dexamethasone, reference compound]
Rabbit eye [1]; [12]
  Pupillary diameter T2: −5 min: 5.5 mm and 6.5 mm (3×) and 6.0 mm (2×) and 7.0 mm and 7.5 mm
  Pupillary diameter T3: +115 min: 5.5 mm (3×) and 6.0 mm (2×) and 4.5 mm and 5.0 mm and 6.5 mm
  Pupillary diameter Δ(T3 − T1): −0.5 mm (3×) and −1.5 mm (2×) and 0.5 mm and 0.0 mm and −2.0 mm
  Pupillary diameter T1: −180 min: 6.0 mm and 7.0 mm (2×) and 5.5 mm (2×) and 6.5 mm (3×)
Rabbit eye [2]; [12]
  Clinical Score −5 min: 0 (6×) and 1 (2×)
  Clinical Score +115 min: 1 (6×) and 3 (2×)
Rabbit eye [2]; [8]
  Clinical score as percentage of eyes, Score (%) 1: 75%
  Clinical score as percentage of eyes, Score (%) 3: 25%
Rabbit eye [2]; 0.1% topical formulation
  Clinical Score −180 min: 0
Rabbit eye [2]; [9]
  Clinical score as percentage of eyes, Score (%) 0: 75%
  Clinical score as percentage of eyes, Score (%) 1: 25%
Rabbit eye [2]; [10]
  Clinical score as percentage of eyes, Score (%) 0: 100%
[3]; 0.1% topical formulation
  PGE2 in aqueous humor, Mean: 2.263 ng/mL
[3]; [12]
  PGE2 in aqueous humor: 2.51 ng/ml and 2.32 ng/ml (2×) and 2.10 ng/ml and 3.03 ng/ml and 1.30 ng/ml
[4]; 0.1% topical formulation
  Protein in aqueous humor, Mean: 33.457 mg/mL
[4]; [12]
  Protein in aqueous humor: 31.31 mg/mL and 31.81 mg/mL and 35.95 mg/mL and 37.15 mg/mL and 32.12 mg/mL and 32.40 mg/mL
